From patent US20120172340A1, “Compositions and Methods for Selectively Activating Human Sirtuins” (BIOMOL International L.P., priority 2004, published 2012) come the findings set out here.

Entries after “also recorded” stand apart in the source; their conditions may differ.

One experiment concerns the target T1, human SIRT5 (Homo sapiens, UniProt Q9NXA8).
T1 sequence (Q9NXA8 37-310): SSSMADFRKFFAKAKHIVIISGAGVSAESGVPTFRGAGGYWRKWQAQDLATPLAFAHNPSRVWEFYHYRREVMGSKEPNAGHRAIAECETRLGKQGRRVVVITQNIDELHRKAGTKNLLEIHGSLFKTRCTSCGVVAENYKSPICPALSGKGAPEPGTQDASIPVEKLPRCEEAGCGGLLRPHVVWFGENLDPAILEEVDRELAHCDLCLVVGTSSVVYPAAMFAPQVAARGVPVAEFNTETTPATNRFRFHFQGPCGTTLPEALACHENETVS
Nature of the experiment: SIRT5 rate measurement, fluorogenic p53-382 peptide deacetylation. The format is biochemical. Set-up: His6 (histidine tag, 2.5 kDa) (N); made in house; host or cells: E. coli. The following applies: for relative activation of SIRT5 versus SIRT1 (in words): comparison of Table 2 SIRT5 and SIRT1 data.

The target of another experiment is T2, human SIRT1 (Homo sapiens, UniProt Q96EB6).
T2 construct: made in house; host or cells: E. coli
T2 sequence (Q96EB6 1-747): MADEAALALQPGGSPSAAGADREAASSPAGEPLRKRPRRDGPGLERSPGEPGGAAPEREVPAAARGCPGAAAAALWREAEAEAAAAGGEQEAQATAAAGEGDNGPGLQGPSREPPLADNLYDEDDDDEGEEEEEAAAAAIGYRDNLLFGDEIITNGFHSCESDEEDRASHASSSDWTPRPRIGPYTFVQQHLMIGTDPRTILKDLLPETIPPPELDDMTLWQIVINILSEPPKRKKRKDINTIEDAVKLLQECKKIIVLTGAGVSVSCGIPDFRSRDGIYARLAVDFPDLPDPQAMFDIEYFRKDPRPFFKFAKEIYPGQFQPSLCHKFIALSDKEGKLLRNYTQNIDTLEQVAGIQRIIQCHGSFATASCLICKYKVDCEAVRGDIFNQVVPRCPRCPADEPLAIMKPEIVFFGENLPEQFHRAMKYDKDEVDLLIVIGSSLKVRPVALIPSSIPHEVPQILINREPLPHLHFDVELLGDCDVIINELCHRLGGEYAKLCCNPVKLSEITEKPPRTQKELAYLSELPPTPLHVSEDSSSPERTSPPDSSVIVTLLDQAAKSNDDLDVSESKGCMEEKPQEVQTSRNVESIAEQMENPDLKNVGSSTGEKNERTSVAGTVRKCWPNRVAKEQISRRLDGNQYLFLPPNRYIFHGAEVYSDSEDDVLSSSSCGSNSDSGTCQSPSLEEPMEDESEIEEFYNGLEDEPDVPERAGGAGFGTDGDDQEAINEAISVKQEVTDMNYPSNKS
Nature of the experiment: SIRT1 rate measurement, fluorogenic p53-382 peptide deacetylation. The format is biochemical. The following applies: 100 μM test compounds; 25 μM NAD+, 25 μM p53-382 peptide.

Where [1] appears, read: 200 μM test compounds, 500 μM NAD+, 100 μM p53-382 peptide.

For the molecule `Oc1ccc(/C=C/c2ccccc2)cc1O` [3,4-Dihydroxy-trans-stilbene], the “identified as human SIRT5 inhibitor” value at human SIRT5 is “SIRT5 inhibitors”. In addition, the “SIRT5 Ratio of Control Rates Mean ± SE Compounds at 200 μM” value at human SIRT5 (setting [1]) is 0.58 ± 0.25. For the same molecule, the “SIRT1 Ratio to Control Rates Mean ± SE Compounds at 100 μM” value on human SIRT1 is 1.64 ± 0.10.
The like results for `Oc1cccc(/C=C/c2ccccc2)c1` [3-Hydroxy-trans-stilbene] were, in that order, “SIRT5 inhibitors”, 0.79 ± 0.06 and 2.36 ± 0.07.
Taken in the same sequence, the figures for `COc1ccc(/C=C/c2ccccc2)cc1` [4-Methoxy-trans-stilbene] were “SIRT5 inhibitors”, 0.79 ± 0.20 and 0.84 ± 0.09.
Regarding `Oc1cc(O)cc(/C=C/c2ccc(Cl)cc2)c1` [BML-217, 3,5-Dihydroxy-4′-chloro-trans-stilbene], on human SIRT5 (setting [1]), the “SIRT5 Ratio of Control Rates Mean ± SE Compounds at 200 μM” value was determined as 13.6 ± 0.4 and the “maximum stimulation observed for SIRT5, increase in activity” value is 13.6 fold. Moreover, the “relative activation of SIRT5 versus SIRT1 (in words)” value (“relative activation” below) on human SIRT5 is “potent activator of SIRT5 and SIRT1”. Further, the “SIRT1 Ratio to Control Rates Mean ± SE Compounds at 100 μM” value at human SIRT1 is reported as 10.6 ± 0.4.
With `Oc1cc(O)cc(/C=C/c2ccc3ccccc3c2)c1` [BML-218, (E)-1-(3,5-Dihydroxyphenyl)-2-(2-napthyl)ethene], the “SIRT5 Ratio of Control Rates Mean ± SE Compounds at 200 μM” value at human SIRT5 (setting [1]) turned out to be 2.47 ± 0.22. In addition, at human SIRT1, the “SIRT1 Ratio to Control Rates Mean ± SE Compounds at 100 μM” value amounted to 3.05 ± 0.37.
The like results for `CC(=O)Oc1ccc(/C=C/c2cc(O)cc(O)c2)cc1` [BML-221, 3,5-Dihydroxy-4′-acetoxy-trans-stilbene] were, in that order, 2.89 ± 0.15 and 3.05 ± 0.54.
Regarding `CC(=O)Nc1ccc(/C=C/c2cc(O)cc(O)c2)cc1` [BML-222, 3,5-Dihydroxy-4′-acetamide-trans-stilbene], the “SIRT5 Ratio of Control Rates Mean ± SE Compounds at 200 μM” value at human SIRT5 (setting [1]) is on record as 2.26 ± 0.17. Further, on human SIRT1, the “SIRT1 Ratio to Control Rates Mean ± SE Compounds at 100 μM” value is recorded as 1.88 ± 0.11.
As to `COc1cc(O)cc(/C=C/c2ccc(NC(C)=O)cc2)c1` [BML-223, 3-methoxy-5-hydroxy-4′-acetamido-trans-stilbene], at human SIRT5 (setting [1]), the “SIRT5 Ratio of Control Rates Mean ± SE Compounds at 200 μM” value is listed as 3.10 ± 0.016.
`Oc1cc(O)cc(/C=C/C2CCCCC2)c1` [BML-224, (E)-1-(3,5-Dihydroxyphenyl)-2-(cyclohexyl)ethene]: at human SIRT5 (setting [1]), the “SIRT5 Ratio of Control Rates Mean ± SE Compounds at 200 μM” value worked out at 1.40 ± 0.23. In addition, the “SIRT1 Ratio to Control Rates Mean ± SE Compounds at 100 μM” value at human SIRT1 is listed as 1.30 ± 0.04.
Taken in the same sequence, the figures for `CCc1ccc(/C=C/c2cc(O)cc(O)c2)cc1` [BML-225, 3,5-Dihydroxy-4′-ethyl-trans-stilbene] were 8.41 ± 0.36 and 9.373 ± 0.014.
The like results for `CC(=O)Oc1cc(O)cc(/C=C/c2ccc(O)cc2)c1` [BML-227, 3,4′-Dihydroxy-5-acetoxy-trans-stilbene] were, in that order, 2.09 ± 0.25 and 2.69 ± 0.08.
The like results for `Cc1ccc(/C=C/c2cc(O)cc(O)c2)cc1` [BML-228, 3,5-Dihydroxy-4′-methyl-trans-stilbene] were, in that order, 8.12 ± 0.31 and 7.72 ± 0.12.
Consider `O=[N+]([O-])c1ccc(/C=C/c2cc(O)cc(O)c2)cc1` [BML-229, 3,5-Dihydroxy-4′-nitro-trans-stilbene], for which the “SIRT5 Ratio of Control Rates Mean ± SE Compounds at 200 μM” value at human SIRT5 (setting [1]) is recorded as 3.43 ± 0.10. The “SIRT1 Ratio to Control Rates Mean ± SE Compounds at 100 μM” value on human SIRT1 is on record as 6.78 ± 0.22.
The like results for `CSc1ccc(/C=C/c2cc(O)cc(O)c2)cc1` [BML-230, 3,5-Dihydroxy-4′-thiomethyl-trans-stilbene] were, in that order, 4.60 ± 0.17 and 6.84 ± 1.26.
Taken in the same sequence, the figures for `CC(C)c1ccc(/C=C/c2cc(O)cc(O)c2)cc1` [BML-231, 3,5-Dihydroxy-4′-isopropyl-trans-stilbene] were 8.41 ± 0.22 and 6.01 ± 0.15.
For `Oc1cc(O)cc(/C=C/c2ccncc2)c1` [BML-236, (E)-1-(3,5-Dihydroxyphenyl)-2-(4-pyridyl)ethene], the “SIRT5 Ratio of Control Rates Mean ± SE Compounds at 200 μM” value on human SIRT5 (setting [1]) turned out to be 2.49 ± 0.29. For the same molecule, the “SIRT1 Ratio to Control Rates Mean ± SE Compounds at 100 μM” value at human SIRT1 worked out at 1.26 ± 0.12.
In the case of `COC(=O)c1ccc(/C=C/c2cc(O)cc(O)c2)cc1` [BML-237, 3,5-Dihydroxy-4′-carbomethoxy-trans-stilbene], the “SIRT5 Ratio of Control Rates Mean ± SE Compounds at 200 μM” value on human SIRT5 (setting [1]) came to 4.50 ± 0.28. Besides, the “relative activation” value at human SIRT5 was “selective activators of SIRT5 as compared to SIRT1”. Also, at human SIRT1, the “SIRT1 Ratio to Control Rates Mean ± SE Compounds at 100 μM” value came to 2.74 ± 0.37.
For the molecule `O=C(O)c1ccc(/C=C/c2cc(O)cc(O)c2)cc1` [BML-238, 3,5-Dihydroxy-4′-carboxy-trans-stilbene], the “SIRT5 Ratio of Control Rates Mean ± SE Compounds at 200 μM” value on human SIRT5 (setting [1]) came out at 2.09 ± 0.25. Further, the “SIRT1 Ratio to Control Rates Mean ± SE Compounds at 100 μM” value at human SIRT1 is on record as 1.36 ± 0.10.
On to `CCSc1ccc(/C=C/c2cc(O)cc(O)c2)cc1` [BML-243, 3,5-Dihydroxy-4′-thioethyl-trans-stilbene], for which, on human SIRT5 (setting [1]), the “SIRT5 Ratio of Control Rates Mean ± SE Compounds at 200 μM” value worked out at 2.12 ± 0.34. In addition, the “relative activation” value at human SIRT5 was “selective activators of SIRT1 as compared to SIRT5; also recorded: relatively less potent SIRT5 activators”. Further, at human SIRT1, the “SIRT1 Ratio to Control Rates Mean ± SE Compounds at 100 μM” value is 12.6 ± 0.4 and the “maximum stimulation observed for SIRT1, increase in activity” value is reported as 12.6 fold.
For `O=C(/C=C/c1ccc(O)c(O)c1)c1ccc(O)cc1O` [Butein, 3,4,2′,4′-Tetrahydroxychalcone], the “SIRT5 Ratio of Control Rates Mean ± SE Compounds at 200 μM” value at human SIRT5 (setting [1]) worked out at 2.19 ± 0.10. Further, at human SIRT5, the “relative activation” value is on record as “selective activators of SIRT1 as compared to SIRT5; also recorded: relatively less potent SIRT5 activation”. The “SIRT1 Ratio to Control Rates Mean ± SE Compounds at 100 μM” value at human SIRT1 was 8.53 ± 0.89.
Consider `O=c1c(O)c(-c2ccc(O)c(O)c2)oc2cc(O)ccc12` [Fisetin, 3,7,3′,4′-Tetrahydroxyflavone], for which the “SIRT5 Ratio of Control Rates Mean ± SE Compounds at 200 μM” value on human SIRT5 (setting [1]) was determined as 2.61 ± 0.19. At human SIRT5, the “relative activation” value is reported as “relatively less potent SIRT5 activation”. Besides, the “SIRT1 Ratio to Control Rates Mean ± SE Compounds at 100 μM” value at human SIRT1 is recorded as 6.58 ± 0.69.
Take `CC(Cc1ccc(O)c(O)c1)C(C)Cc1ccc(O)c(O)c1` (centres unmarked) [NDGA, Nordihydroguaiaretic acid]: on human SIRT5 (setting [1]), the “SIRT5 Ratio of Control Rates Mean ± SE Compounds at 200 μM” value is 1.91 ± 0.02. Also, the “SIRT1 Ratio to Control Rates Mean ± SE Compounds at 100 μM” value at human SIRT1 worked out at 1.738 ± 0.088.
As for `Oc1cc(O)cc(/C=C/c2ccc(O)c(O)c2)c1` [Piceatannol, 3,5,3′,4′-Tetrahydroxy-trans-stilbene], the “SIRT5 Ratio of Control Rates Mean ± SE Compounds at 200 μM” value on human SIRT5 (setting [1]) is on record as 3.23 ± 0.21. Moreover, the “relative activation” value at human SIRT5 is reported as “relatively more potent at activating SIRT1 than SIRT5”. Further, at human SIRT1, the “SIRT1 Ratio to Control Rates Mean ± SE Compounds at 100 μM” value was found to be 7.90 ± 0.50.
For `Oc1cc(O)cc(/C=C/c2ccccc2)c1` [Pinosylvin, 3,5-Dihydroxy-trans-stilbene], the “SIRT5 Ratio of Control Rates Mean ± SE Compounds at 200 μM” value on human SIRT5 (setting [1]) amounted to 2.71 ± 0.092. Further, at human SIRT5, the “relative activation” value was “relatively more potent at activating SIRT1 than SIRT5”. On human SIRT1, the “SIRT1 Ratio to Control Rates Mean ± SE Compounds at 100 μM” value is listed as 9.95 ± 0.45.
